According to the NIST ThermoML archive (doi:10.1016/j.jct.2016.08.038):
Numbers after ± are expanded uncertainties.

What was measured:
[1] = refractive index (Na D-line) (dimensionless); conditions: 101.33 kPa, Standard Abbe refractometry, Liquid
[2] = molar heat capacity at constant pressure; conditions: 101.33 kPa, Small sample (50 mg) DSC, Liquid
[3] = for electrical conductivity: Frequency=0.001 MHz, Alternating current cell with electrodes; for electrical conductivity / speed of sound / kinematic viscosity / mass density / surface tension liquid-gas: Liquid; for speed of sound: Frequency=3 MHz, Sing-around technique in a fixed-path interferometer; for kinematic viscosity: Capillary tube (Ostwald / Ubbelohde) method; for mass density: Vibrating tube method; for surface tension liquid-gas: Drop volume
[4] = Molar enthalpy of transition or fusion; conditions: DSC

CC[n+]1ccccc1.O=S(=O)([O-])C(F)(F)F [1-ethylpyridinium triflate]
Conditions | Molar enthalpy of transition or fusion [kcal/mol] | Normal melting temperature [°C] | Triple point temperature [K] | molar heat capacity at constant pressure [J/K/mol] | refractive index | surface tension liquid-gas [mN/m]
[1], 293.15 K | – | – | – | – | 1.46039 ± 0.00037 | –
[1], 295.65 K | – | – | – | – | 1.45969 ± 0.00037 | –
[1], 298.15 K | – | – | – | – | 1.45898 ± 0.00037 | –
[1], 300.65 K | – | – | – | – | 1.4583 ± 0.00037 | –
[1], 303.15 K | – | – | – | – | 1.45759 ± 0.00037 | –
[1], 305.65 K | – | – | – | – | 1.45689 ± 0.00037 | –
[1], 308.15 K | – | – | – | – | 1.45619 ± 0.00037 | –
[1], 310.65 K | – | – | – | – | 1.4555 ± 0.00037 | –
[1], 313.15 K | – | – | – | – | 1.45484 ± 0.00037 | –
[1], 315.65 K | – | – | – | – | 1.45415 ± 0.00037 | –
[1], 318.15 K | – | – | – | – | 1.45345 ± 0.00037 | –
[1], 320.65 K | – | – | – | – | 1.45276 ± 0.00037 | –
[1], 323.15 K | – | – | – | – | 1.45206 ± 0.00037 | –
[1], 325.65 K | – | – | – | – | 1.45134 ± 0.00037 | –
[1], 328.15 K | – | – | – | – | 1.45064 ± 0.00037 | –
[1], 330.65 K | – | – | – | – | 1.44995 ± 0.00037 | –
[1], 333.15 K | – | – | – | – | 1.44927 ± 0.00037 | –
[1], 335.65 K | – | – | – | – | 1.44859 ± 0.00037 | –
[1], 338.15 K | – | – | – | – | 1.44789 ± 0.00037 | –
[2], 293.15 K | – | – | – | 348.4 ± 12 | – | –
[2], 295.65 K | – | – | – | 350.2 ± 12 | – | –
[2], 298.15 K | – | – | – | 351.8 ± 12 | – | –
[2], 300.65 K | – | – | – | 353.6 ± 12 | – | –
[2], 303.15 K | – | – | – | 355.3 ± 12 | – | –
[2], 305.65 K | – | – | – | 357.1 ± 12 | – | –
[2], 308.15 K | – | – | – | 358.7 ± 12 | – | –
[2], 310.65 K | – | – | – | 360.5 ± 12 | – | –
[2], 313.15 K | – | – | – | 362.1 ± 12 | – | –
[2], 315.65 K | – | – | – | 363.8 ± 12 | – | –
[2], 318.15 K | – | – | – | 365.4 ± 12 | – | –
[2], 320.65 K | – | – | – | 367 ± 12 | – | –
[2], 323.15 K | – | – | – | 368.7 ± 12 | – | –
[2], 325.65 K | – | – | – | 370.3 ± 12 | – | –
[2], 328.15 K | – | – | – | 371.8 ± 12 | – | –
[2], 330.65 K | – | – | – | 373.5 ± 12 | – | –
[2], 333.15 K | – | – | – | 375.2 ± 12 | – | –
[2], 335.65 K | – | – | – | 376.9 ± 12 | – | –
[2], 338.15 K | – | – | – | 378.6 ± 13 | – | –
[3], 293.15 K | – | – | – | – | – | 42.48 ± 0.51
[3], 295.65 K | – | – | – | – | – | 42.36 ± 0.51
[3], 298.15 K | – | – | – | – | – | 42.26 ± 0.5
[3], 300.65 K | – | – | – | – | – | 42.15 ± 0.5
[3], 303.15 K | – | – | – | – | – | 42.08 ± 0.5
[3], 305.65 K | – | – | – | – | – | 42.02 ± 0.5
[3], 308.15 K | – | – | – | – | – | 41.93 ± 0.5
[3], 310.65 K | – | – | – | – | – | 41.83 ± 0.5
[3], 313.15 K | – | – | – | – | – | 41.71 ± 0.5
[3], 315.65 K | – | – | – | – | – | 41.65 ± 0.5
[3], 318.15 K | – | – | – | – | – | 41.55 ± 0.5
[3], 320.65 K | – | – | – | – | – | 41.43 ± 0.49
[3], 323.15 K | – | – | – | – | – | 41.31 ± 0.49
[3], 325.65 K | – | – | – | – | – | 41.22 ± 0.49
[3], 328.15 K | – | – | – | – | – | 41.16 ± 0.49
[3], 330.65 K | – | – | – | – | – | 41.07 ± 0.49
[3], 333.15 K | – | – | – | – | – | 40.95 ± 0.49
[3], 335.65 K | – | – | – | – | – | 40.88 ± 0.49
[3], 338.15 K | – | – | – | – | – | 40.76 ± 0.49
[3], Crystal 1, DTA | – | 16 ± 1 | – | – | – | –
[3], Crystal 2, DSC | – | – | 260.4 ± 1.2 | – | – | –
[4], Crystal 1 | 2.75 ± 0.0717 | – | – | – | – | –
[4], Crystal 2 | 0.167 ± 0.0239 | – | – | – | – | –

[3]
Conditions | electrical conductivity [S/m] | kinematic viscosity [m2/s] | mass density [kg/m3] | speed of sound [m/s]
293.15 K, 100 kPa | 0.407 ± 0.008 | – | – | 1500.4 ± 2.7
293.15 K, 101.33 kPa | – | 6.89e-05 ± 1.5e-06 | 1409.09 ± 1.1 | –
295.65 K, 100 kPa | 0.456 ± 0.009 | – | – | 1495 ± 2.8
295.65 K, 101.33 kPa | – | 6.14e-05 ± 1.3e-06 | 1407.09 ± 1.1 | –
298.15 K, 100 kPa | 0.502 ± 0.01 | – | – | 1489.1 ± 2.8
298.15 K, 101.33 kPa | – | 5.47e-05 ± 1.1e-06 | 1405.03 ± 1.1 | –
300.65 K, 100 kPa | 0.556 ± 0.011 | – | – | 1483.4 ± 2.8
300.65 K, 101.33 kPa | – | 4.95e-05 ± 1e-06 | 1402.96 ± 1.1 | –
303.15 K, 100 kPa | 0.613 ± 0.012 | – | 1400.91 ± 1.1 | 1477.7 ± 2.8
303.15 K, 101.33 kPa | – | 4.45e-05 ± 9.3e-07 | 1400.9 ± 1.1 | –
303.15 K, 5000 kPa | – | – | 1403.53 ± 1.2 | –
303.15 K, 10000 kPa | – | – | 1406.14 ± 1.2 | –
303.15 K, 15000 kPa | – | – | 1408.69 ± 1.2 | –
303.15 K, 20000 kPa | – | – | 1411.17 ± 1.3 | –
303.15 K, 25000 kPa | – | – | 1413.58 ± 1.4 | –
303.15 K, 30000 kPa | – | – | 1415.93 ± 1.4 | –
303.15 K, 35000 kPa | – | – | 1418.22 ± 1.5 | –
303.15 K, 40000 kPa | – | – | 1420.44 ± 1.5 | –
305.65 K, 100 kPa | 0.676 ± 0.014 | – | – | 1471.9 ± 2.8
305.65 K, 101.33 kPa | – | 4.02e-05 ± 8.4e-07 | 1398.85 ± 1.1 | –
308.15 K, 100 kPa | 0.744 ± 0.015 | – | – | 1466.3 ± 2.7
308.15 K, 101.33 kPa | – | 3.63e-05 ± 7.6e-07 | 1396.8 ± 1.1 | –
310.65 K, 100 kPa | 0.808 ± 0.016 | – | – | 1461.1 ± 2.8
310.65 K, 101.33 kPa | – | 3.3e-05 ± 6.9e-07 | 1394.77 ± 1.1 | –
313.15 K, 100 kPa | 0.872 ± 0.017 | – | – | 1455 ± 2.7
313.15 K, 101.33 kPa | – | 3.01e-05 ± 6.3e-07 | 1392.77 ± 1.1 | –
315.65 K, 100 kPa | 0.953 ± 0.019 | – | – | 1450 ± 2.7
315.65 K, 101.33 kPa | – | 2.75e-05 ± 5.8e-07 | 1390.68 ± 1.1 | –
318.15 K, 100 kPa | 1.02 ± 0.021 | – | – | 1444 ± 2.8
318.15 K, 101.33 kPa | – | 2.52e-05 ± 5.3e-07 | 1388.63 ± 1.1 | –
320.65 K, 100 kPa | 1.13 ± 0.023 | – | – | 1438.2 ± 2.6
320.65 K, 101.33 kPa | – | 2.31e-05 ± 4.9e-07 | 1386.59 ± 1.1 | –
323.15 K, 100 kPa | 1.21 ± 0.024 | – | – | 1433.2 ± 2.6
323.15 K, 101.33 kPa | – | 2.13e-05 ± 4.5e-07 | 1384.6 ± 1.1 | –
325.65 K, 100 kPa | 1.3 ± 0.026 | – | – | 1427.4 ± 2.8
325.65 K, 101.33 kPa | – | 1.96e-05 ± 4.1e-07 | 1382.5 ± 1.1 | –
328.15 K, 100 kPa | 1.39 ± 0.028 | – | – | 1421.9 ± 2.8
328.15 K, 101.33 kPa | – | 1.82e-05 ± 3.8e-07 | 1380.47 ± 1.1 | –
330.65 K, 100 kPa | 1.47 ± 0.029 | – | – | 1416.1 ± 2.7
330.65 K, 101.33 kPa | – | 1.69e-05 ± 3.5e-07 | 1378.45 ± 1.1 | –
333.15 K, 100 kPa | 1.59 ± 0.032 | – | – | 1410.6 ± 2.7
333.15 K, 101.33 kPa | – | 1.57e-05 ± 3.3e-07 | 1376.42 ± 1.1 | –
335.65 K, 100 kPa | 1.68 ± 0.034 | – | – | 1405.1 ± 2.7
335.65 K, 101.33 kPa | – | 1.46e-05 ± 3.1e-07 | 1374.41 ± 1.1 | –
338.15 K, 100 kPa | 1.78 ± 0.036 | – | – | 1399.7 ± 2.7
338.15 K, 101.33 kPa | – | 1.36e-05 ± 2.9e-07 | 1372.35 ± 1.1 | –
